What was measured:
Assay type in all cases: in vivo, human
[1] = system: middle age person with shoulder pain; test: Case report: shoulder pain, CMO with gabapentin; details: 0.1 milligrams to 10 grams cetyl myristoleate once to four times per day with an effective dosage gabapentin; one patient
Source text: A middle age person was taking a brief CMO regime for shoulder pain.

[2] = system: middle age person with complex regional pain syndrome; test: Case report: complex regional pain syndrome with post-surgery pain
Experimental: A middle age person with complex regional pain syndrome had post-surgery pain. It was so severe that the person was to have foot amputation for the pain. A dosage of 0.1 milligrams to 10 grams of cetyl myristoleate once to four times per day was administered to the person. Shortly, the person described the pain decreased by 20-30 percent.

[3] = system: middle age person with knee pain; test: Case report: knee pain, CMO with gabapentin; details: 0.1 milligrams to 10 grams cetyl myristoleate once to four times per day with appropriate dosage gabapentin; one patient
Source text: A middle age person was taking a brief CMO regime for knee pain.

[4] = system: middle age person with cervical post-surgery syndrome; test: Case report: cervical post-surgery syndrome; details: 0.1 milligrams to 10 grams cetyl myristoleate once to four times per day; one patient
Source text: A middle age person experienced cervical post-surgery syndrome.

## CCCC/C=C\CCCCCCCC(=O)OCCCCCCCCCCCCCCCC [cetyl myristoleate, cis-9-Cetyl myristoleate]
[1]
  shoulder pain: decreased dramatically
[2]; 0.1 milligrams to 10 grams cetyl myristoleate once to four times per day, one patient, post-surgery pain
  pain decreased (patient described): 20-30%
[2]; patient was to have foot amputation for the pain, 0.1 milligrams to 10 grams once to four times per day
  amputation outcome: has not undergone amputation
[3]
  knee pain: decreased dramatically
[4]
  post-laminectomy syndrome (PLS): improved significantly

From patent US20190008819A1, “Methods and Compositions Using Cetyl Myristoleate (CMO) In Medical Treatments” (priority 2017, published 2019)
